Consider 3 molecules from patent US9975893B2, “Pyrazolo[3,4-c]pyridine derivatives” (CSPC ZHONGQI PHARMACEUTICAL TECHNOLOGY (SHIJIAZHUANG) CO., …, priority 2014, dated 2018).

Where only a bound is given, the exact number is not on record here.

Data set [1] has as its system Male SD rats. Briefly: Arteriovenous shunt model in rats. The note with it: rats given orally 2-4 hours before shunt opened; shunt 15 minutes; thrombus weight, treated vs. mean vehicle. In kind it is in vivo, rat. Details: concentration or dose not given beside the values. The text has this:
III. Arteriovenous Shunt Model in Rats
Two 10 cm-long polyethylene tubings (1.50 and 2.88 mm of inner and outer diameter, respectively) linked to a central part (8 cm-long, 2.11 and 3.77 mm of inner and outer diameter, respectively) containing a 6 cm silk thread and filled with heparin (3.125 U/ml) were placed between the right carotid artery and the left jugular vein in rats.
Male SD rats were anesthetized by intraperitoneal injection of 10% chloral hydrate after oral dose, inverted fixation, then the right catotid artery and left vena jugularis externa were isolated, the proximal and distal sutures of catotid artery were tied. The syringe needle were cannulated into the catotid artery and fasted, the other of the tube was cannulated into the right vena jugularis externa. Rats were given orally 2-4 hours before the shunt was opened. Blood flowed from the right carotid artery into the polyethylene tubing and then return to left vena jugularis externa. The shunt was then disconnected 15 minutes later and the silk thread covered with thrombus was immediately withdrawn and weighed. The wet weight of the thrombus was determined. Then the silk thread was dried at 60° C. for 4 h to get the dry weight of the thrombus. The anti-thrombotic effects of these agents were expressed as percentage inhibition of thrombus formation based on the treated vs. the corresponding mean vehicle.

Data set [2] deals with Male SD rats. Description: Rat tail bleeding model. In kind it is in vivo. To be noted: rat tail transected 0.5 to 4 hours after administration; prolongation = ratio of treated vs. mean vehicle value; relative to apixaban. The method, then:
II Rat Tail Bleeding Model
Male SD rats were allocated randomly and administrated. After the administration, the rats were anesthetized by intraperitoneal injection of 10% chloral hydrate. At the time point of 0.5 to 4 hours (Tmax in PK) after the administration, the tails of anesthetized rats were transected 3 mm from the tip and vertically immersed in saline at 37° C. The time point when the continuous blood flow ceased for >30 s was measured. The prolongation of bleeding time was expressed as a ratio of treated vs. the mean vehicle value. Effects of compounds were determined as described below.

Data set [3] deals with T1, Factor Xa (Homo sapiens, UniProt P00742).
T1 construct: purchased MERK
Description: Anti-Factor Xa activity assay (chromogenic substrate CS-11(22)). To be noted: ratio of compound IC50 to apixaban IC50; Factor Xa 0.1 U/ml, absorbance at 405 nm, 37° C. The format is biochemical. The method, then: I. Anti-Factor Xa Activity Assay
Substrate: CS-1122 (Hyphen)
Buffer: 50 mM TrisHCl, 150 mM NaCl, PH8.3
100 μL of buffer, 50 μL of different concentrations of compounds (diluted with buffer) and 50 μl of 0.1 U/ml Factor Xa enzyme (diluted with buffer) were added to a 96-well plate. After 15 min of exposure, 50 μL of chromogenic substrate 2.5 mg/ml CS-11 (22) was added. The substrate hydrolysis was monitored by measuring absorbance at 405 nm at 37° C. for up to 30 min (interval: 30 seconds) using a microplate spectrophotometer. IC50 was calculated by bliss.

T1 sequence (P00742 235-488 limits assumed): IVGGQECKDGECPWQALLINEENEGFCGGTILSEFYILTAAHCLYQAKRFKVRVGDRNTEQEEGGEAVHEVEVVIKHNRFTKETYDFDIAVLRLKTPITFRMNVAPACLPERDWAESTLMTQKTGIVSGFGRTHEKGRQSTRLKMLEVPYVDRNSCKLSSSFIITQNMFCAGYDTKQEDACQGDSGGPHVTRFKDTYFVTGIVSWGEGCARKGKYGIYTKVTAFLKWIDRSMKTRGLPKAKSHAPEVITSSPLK
T1 sequence (P00742 41-179 partner limits assumed): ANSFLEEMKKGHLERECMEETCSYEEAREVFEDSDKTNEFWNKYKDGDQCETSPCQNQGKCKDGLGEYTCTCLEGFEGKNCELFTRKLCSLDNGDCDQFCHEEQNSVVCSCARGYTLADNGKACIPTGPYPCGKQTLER

With `CCOc1ccc(-n2nc(C(N)=O)c3c2C(=O)N(c2ccc(N4CCCC4=O)c(C)c2)CC3)cc1F` [A 36, 1-(3-fluoro-4-ethoxyphenyl)-6-(3-methyl-4-(2-oxopyrrolidin-1-yl)phenyl)-7-oxo-4,5,6,7-tetrahydro-1H-pyrazolo[3,4-c]pyridine-3-carboxamide], the “Inhibition of thrombus formation (%)” value in data set [1] is recorded as 71.6%. Besides, the “The Prolongation of bleeding time (compound)/The Prolongation of bleeding time(apixaban)” value (“The Prolongation of bleeding time” below) in data set [2] is on record as <1. The “IC50(Compound)/IC50(apixaban)” value in data set [3] is <1.
With `CCOc1ccc(-n2nc(C(N)=O)c3c2C(=O)N(c2ccc(N4CCOCC4=O)c(C)c2)CC3)cc1F` [A 34, 1-(3-fluoro-4-ethoxyphenyl)-6-(3-methyl-4-(3-oxomorpholino)phenyl)-7-oxo-4,5,6,7-tetrahydro-1H-pyrazolo[3,4-c]pyridine-3-carboxamide], in data set [1], the “Inhibition of thrombus formation (%)” value is 62.5%. For the same molecule, the “The Prolongation of bleeding time” value in data set [2] is given as <1. For the same molecule, the “IC50(Compound)/IC50(apixaban)” value in data set [3] is <1.
Consider `CCOc1ccc(-n2nc(C(N)=O)c3c2C(=O)N(c2ccc(-n4cccc(C)c4=O)c(C)c2)CC3)cc1` [A 39, 1-(4-ethoxyphenyl)-6-(3-methyl-4-(3-methyl-2-oxopyridin-1(2H)-yl)phenyl)-7-oxo-4,5,6,7-tetrahydro-1H-pyrazolo[3,4-c]pyridine-3-carboxamide], for which the “Inhibition of thrombus formation (%)” value in data set [1] was 64.5%. Further, the “The Prolongation of bleeding time” value in data set [2] was <1. In data set [3], the “IC50(Compound)/IC50(apixaban)” value is <1.
